Measured values: patent publication US6984649B1, “Pyridine derivatives” (Bayer Aktiengesellschaft, priority 2000, dated 2006)
Counter-ions that a name gives are not always drawn.

Legend:
[1] = tested on: A549 human lung epithelium cell line; test: RANTES production in response to TNF-α from A549 cells; assay type: cell-based; settings: Homo sapiens, A549, A549 cells, 100 ng/ml TNF-α, read-out: Cellular activity grade (A549) (Cellular IC50)
In short: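 Cells (4×10^4/well) in D-MEM/10% FCS preincubated 1 h at 37 °C with compound in 1% DMSO, then stimulated with 100 ng/ml TNF-α for 24 h. Supernatant RANTES quantified by Eu-labelled sandwich immunoassay (time-resolved fluorescence, ex 340/em 615 nm) against recombinant human RANTES standard.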

Jurkat T cells = test: IL-2 production in Jurkat T cells in response to anti-CD3/anti-CD28 antibody stimulation; assay type: cell-based; settings: Homo sapiens, read-out: Cellular activity grade (Jurkat) (Cellular IC50)

Compound | IC50 [1] | IC50 (Jurkat T cells)
N#Cc1c(N)nc(-c2ccccc2O)c(F)c1C1CCCNC1 (centres unmarked) [Example 1-4, 2-amino-5-fluoro-6-(2-hydroxyphenyl)-4-(3-piperidinyl)-nicotinonitrile trifluoroacetate] | 1000 to 10000 nM | 1000 to 10000 nM
N#Cc1c(C2CCCNC2)cc(-c2ccccc2O)nc1NCc1ccccc1 (centres unmarked) [Example 4-1, 2-(benzylamino)-6-(2-hydroxyphenyl)-4-(3-piperidinyl)nicotinonitrile hydrochloride] | 1000 to 10000 nM | 1000 to 10000 nM
N#Cc1c(C2CCCNC2)cc(-c2c(O)cccc2NCc2ccccc2)nc1N (centres unmarked) [Example 1-11, 2-amino-6-[2-(benzylamino)-6-hydroxyphenyl]-4-(3-piperidinyl)nicotinonitrile hydrochloride] | > 10000 nM | 
N#Cc1c(C2CCCN(Cc3ccccc3)C2)cc(-c2c(O)cccc2OCC2CC2)nc1N (centres unmarked) [Example 3-2, 2-amino-4-(1-benzyl-3-piperidinyl)-6-[2-(cyclopropylmethoxy)-6-hydroxyphenyl]nicotinonitrile] | > 10000 nM | 
Cn1c(=O)[nH]c2nc(-c3ccccc3O)cc(C3CCCNC3)c2c1=O (centres unmarked) [Example 10-1, 7-(2-hydroxy-phenyl)-3-methyl-5-piperidin-3-yl-1H-pyrido[2,3-d]pyrimidine-2,4-dione hydrochloride] | 1000 to 10000 nM | 
N#Cc1ccc(-c2ccccc2O)nc1N [Example 33-1, 2-amino-6-(2-hydroxyphenyl)nicotinonitrile] | 1000 to 10000 nM | 
CC(=O)Nc1cccc(O)c1-c1cc(C2CCCNC2)c(C#N)c(N)n1 (centres unmarked) [Example 1-12, N-{2-[6-amino-5-cyano-4-(3-piperidinyl)-2-pyridinyl]-3-hydroxyphenyl}acetamide hydrochloride] | > 10000 nM | 
O=C1NCc2c(C3CCCNC3)cc(-c3ccccc3O)nc2N1 (centres unmarked) [Example 22-1, 7-(2-hydroxyphenyl)-5-(3-piperidinyl)-3,4-dihydropyrido[2,3-d]pyrimidin-2(1H)-one hydrochloride] | 1000 to 10000 nM | 
O=S1(=O)NCc2c(C3CCCNC3)cc(-c3ccccc3O)nc2N1 (centres unmarked) [Example 22-5, 2-[2,2-dioxido-5-(3-piperidinyl)-3,4-dihydro-1H-pyrido[2,3-c][1,2,6]thiadiazin-7-yl]phenol hydrochloride] | 1000 to 10000 nM | 
CC1OC(=O)Nc2nc(-c3ccccc3O)cc(C3CCCNC3)c21 (centres unmarked) [Example 18-3, hydrochloride] | 1000 to 10000 nM | 
Nc1n[nH]c2nc(-c3ccccc3O)cc(C3CCCNC3)c12 (centres unmarked) [Example 5-1, 2-[3-amino-4-(3-piperidinyl)-1H-pyrazolo[3,4-b]pyridin-6-yl]phenol hydrochloride] | 1000 to 10000 nM | 
CNc1nc(-c2ccccc2O)cc(C2CCCNC2)c1C#N (centres unmarked) [Example 4-3, 6-(2-hydroxyphenyl)-2-(methylamino)-4-(3-piperidinyl)nicotinonitrile hydrochloride] | > 10000 nM | 
CC(=O)Nc1nc(-c2ccccc2O)cc(C2CCCNC2)c1C#N (centres unmarked) [Example 6-1, N-[3-cyano-6-(2-hydroxyphenyl)-4-(3-piperidinyl)-2-pyridinyl]acetamide hydrochloride] | 1000 to 10000 nM | 
CS(=O)(=O)NC(=O)c1cc2c(C3CCCNC3)cc(-c3c(O)cccc3OCC3CC3)nc2[nH]c1=O (centres unmarked) [Example 31-2, N-{[7-[2-(cyclopropylmethoxy)-6-hydroxyphenyl]-2-oxo-5-(3-piperidinyl)-1,2-dihydro-1,8-naphthyridin-3-yl]carbonyl}methanesulfonamide hydrochloride] | 1000 to 10000 nM | 
CC(=O)Nc1nc(-c2c(O)cccc2OCC2CC2)cc(C2CCNCC2)c1C#N [Example 6-2, N-[3-cyano-6-[2-(cyclopropylmethoxy)-6-hydroxyphenyl]-4-(4-piperidinyl)-2-pyridinyl]acetamide hydrochloride] | < 1000 nM | 
Nc1nc(-c2c(O)cccc2OCC2CC2)cc(C2CCCNC2)c1C(=O)O (centres unmarked) [Example 9-3, 2-amino-6-[2-(cyclopropylmethoxy)-6-hydroxyphenyl]-4-(3-piperidinyl)nicotinic acid hydrochloride] | > 10000 nM | 

Other lines, results leading:

IC50 [1] | IC50 (Jurkat T cells) | Compound
< 1000 nM | 1000 to 10000 nM | N#Cc1c(C2CCNC2)cc(-c2ccccc2O)nc1N (centres unmarked) [Example 1-2, 2-amino-6-(2-hydroxyphenyl)-4-(3-pirrolidinyl)nicotinonitrile trifluoroacetate]
< 1000 nM | < 1000 nM | N#Cc1c(C2CCCNC2)cc(-c2ccccc2O)nc1N (centres unmarked) [Example 1-1, 2-amino-6-(2-hydroxyphenyl)-4-(3-piperidinyl)-nicotinonitrile hydrochloride]
< 1000 nM |  | O=C1NCc2c(C3CCCNC3)cc(-c3c(O)cccc3OCC3CC3)nc2N1 (centres unmarked) [Example 22-2, 7-[2-(cyclopropylmethoxy)-6-hydroxyphenyl]-5-(3-piperidinyl)-3,4-dihydro-1H-pyrido[2,3-d]-pyrimidin-2-one hydrochloride]
< 1000 nM |  | Nc1cc2c(C3CCCNC3)cc(-c3c(O)cccc3OCC3CC3)nc2[nH]c1=O (centres unmarked) [Example 29-01, 3-amino-7-[2-(cyclopropylmethoxy)-6-hydroxyphenyl]-5-(3-piperidinyl)-1,8-naphthyridin-2(1H)-one hydrochloride]
< 1000 nM |  | Nc1nc(-c2c(O)cccc2OCC2CC2)cc(C2CCNCC2)c1CON1C(=O)CCC1=O [Example 21-4, 1-{[2-amino-6-[2-(cyclopropylmethoxy)-6-hydroxyphenyl]-4-(4-piperidinyl)-3-pyridinyl]methoxy}-2,5-pyrrolidinedione hydrochloride]
< 1000 nM | 1000 to 10000 nM | O=C1Nc2nc(-c3ccccc3O)cc(C3CCCNC3)c2CO1 (centres unmarked) [Example 18-2, 7-(2-hydroxyphenyl)-5-(3-piperidinyl)-1,4-dihydro-2H-pyrido[2,3-d][1,3]oxazin-2-one hydrochloride]
< 1000 nM | 1000 to 10000 nM | Cc1c(C2CCCNC2)cc(-c2ccccc2O)nc1N (centres unmarked) [Example 14-1, 2-[6-amino-5-methyl-4-(3-piperidinyl)-2-pyridinyl]phenol hydrochloride]
